Measurements taken from a compilation of properties of binary mixtures (doi:10.1021/je3004904).

Assay: xn = mol fraction of the nth substance listed
Conditions: 101 kPa

[Cl][Al]([Cl])[Cl] + CCCC[n+]1ccn(C)c1.[Cl-]
Conditions	electrical conductivity [S/m]	viscosity [mPa·s]
293.15 K, x1 = 0.5	–	41.63
293.15 K, x1 = 0.5238	–	38.28
293.15 K, x1 = 0.545	–	35.03
293.15 K, x1 = 0.5454	–	34.99
293.15 K, x1 = 0.5653	–	32.26
293.15 K, x1 = 0.583	–	30.37
293.15 K, x1 = 0.5834	–	30.34
293.15 K, x1 = 0.6001	–	28.34
293.15 K, x1 = 0.615	–	26.91
293.15 K, x1 = 0.6154	–	26.89
293.15 K, x1 = 0.6296	–	25.31
293.15 K, x1 = 0.6429	–	24.35
293.15 K, x1 = 0.6551	–	23.44
293.15 K, x1 = 0.6667	–	22.54
298.15 K, x1 = 0.583	0.947	25.24
298.15 K, x1 = 0.615	0.931	22.59
298.15 K, x1 = 0.643	0.919	20.62
298.15 K, x1 = 0.667	0.912	19.42
303.15 K, x1 = 0.5	–	28.33
303.15 K, x1 = 0.545	1.14	24.35
303.15 K, x1 = 0.5454	–	24.32
303.15 K, x1 = 0.583	1.1	21.38
303.15 K, x1 = 0.5834	–	21.36
303.15 K, x1 = 0.6001	–	20.2
303.15 K, x1 = 0.615	1.07	19.34
303.15 K, x1 = 0.6154	–	19.33
303.15 K, x1 = 0.6296	–	18.29
303.15 K, x1 = 0.6551	–	17.1
303.15 K, x1 = 0.6667	–	16.73
308.15 K, x1 = 0.545	1.32	20.84
308.15 K, x1 = 0.583	1.26	18.31
308.15 K, x1 = 0.643	1.21	15.39
308.15 K, x1 = 0.667	1.2	14.59
313.15 K, x1 = 0.5	–	20.76
313.15 K, x1 = 0.5238	–	19.48
313.15 K, x1 = 0.545	1.51	18.1
313.15 K, x1 = 0.5653	–	16.92
313.15 K, x1 = 0.583	1.44	16.03
313.15 K, x1 = 0.5834	–	16.01
313.15 K, x1 = 0.6001	–	15.28
313.15 K, x1 = 0.615	1.39	14.61
313.15 K, x1 = 0.6296	–	13.96
313.15 K, x1 = 0.6429	–	13.53
313.15 K, x1 = 0.643	1.36	13.54
313.15 K, x1 = 0.6551	–	13.12
313.15 K, x1 = 0.6667	–	12.87
313.15 K, x1 = 0.667	1.34	12.87
318.15 K, x1 = 0.545	1.71	15.92
318.15 K, x1 = 0.583	1.63	14.15
318.15 K, x1 = 0.615	1.57	12.78
318.15 K, x1 = 0.643	1.52	12.04
323.15 K, x1 = 0.5238	–	15.16
323.15 K, x1 = 0.545	1.93	14.15
323.15 K, x1 = 0.5653	–	13.29
323.15 K, x1 = 0.583	1.83	12.61
323.15 K, x1 = 0.5834	–	12.6
323.15 K, x1 = 0.6001	–	12.09
323.15 K, x1 = 0.615	1.76	11.56
323.15 K, x1 = 0.6154	–	11.55
323.15 K, x1 = 0.6429	–	10.78
323.15 K, x1 = 0.643	1.69	10.8
323.15 K, x1 = 0.6551	–	10.48
323.15 K, x1 = 0.6667	–	10.17
323.15 K, x1 = 0.667	1.66	10.17
328.15 K, x1 = 0.545	2.15	12.7
328.15 K, x1 = 0.583	2.04	11.34
328.15 K, x1 = 0.615	1.95	10.45
328.15 K, x1 = 0.667	1.83	9.05
333.15 K, x1 = 0.5	–	12.95
333.15 K, x1 = 0.545	2.39	11.49
333.15 K, x1 = 0.5454	–	11.47
333.15 K, x1 = 0.5653	–	10.83
333.15 K, x1 = 0.583	2.26	10.29
333.15 K, x1 = 0.5834	–	10.28
333.15 K, x1 = 0.6154	–	9.49
333.15 K, x1 = 0.6429	–	8.88
333.15 K, x1 = 0.643	2.07	8.88
333.15 K, x1 = 0.6551	–	8.63
333.15 K, x1 = 0.6667	–	8.23
333.15 K, x1 = 0.667	2.01	8.23
338.15 K, x1 = 0.545	2.63	10.48
338.15 K, x1 = 0.583	2.49	9.4
338.15 K, x1 = 0.615	2.38	8.69
338.15 K, x1 = 0.643	2.28	8.14
338.15 K, x1 = 0.667	2.2	7.43
343.15 K, x1 = 0.5	–	10.78
343.15 K, x1 = 0.5238	–	10.26
343.15 K, x1 = 0.545	2.88	9.63
343.15 K, x1 = 0.5653	–	9.09
343.15 K, x1 = 0.583	2.73	8.64
343.15 K, x1 = 0.6001	–	8.34
343.15 K, x1 = 0.615	2.6	8.01
343.15 K, x1 = 0.6154	–	8.01
343.15 K, x1 = 0.6296	–	7.73
343.15 K, x1 = 0.643	2.5	7.5
343.15 K, x1 = 0.6551	–	7.209
343.15 K, x1 = 0.6667	–	6.824
343.15 K, x1 = 0.667	2.4	6.824
